≈ marks a conversion by molar mass, not a printed value.
Experiments:
Assay in all cases: MIC, microdilution broth method (NCCLS)
Type in all cases: cell-based
S. aureus ATCC29213 = conditions: B: S. aureus ATCC29213, 35° C., 16-20 hours
Method: (§1) Minimal inhibitory concentration (MIC) has been an indicator of in vitro antibacterial activity widely used in the art. The in vitro antimicrobial activity of the compounds was determined by the microdilution broth method following the test method from the National Committee for Clinical Laboratory Standards (NCCLS). This method is described in the NCCLS Document M7-A4, Vol. 17, No. 2, “Methods for Dilution Antimicrobial Susceptibility Test for Bacteria that Grow Aerobically—Fourth Edition”, which is incorporated herein by reference.
(§2) In this method two-fold serial dilutions of drug in cation adjusted Mueller-Hinton broth are added to wells in microdilution trays. The test organisms are prepared by adjusting the turbidity of actively growing broth cultures so that the final concentration of test organism after it is added to the wells is approximately 5×10^4 CFU/well.
(§3) Following inoculation of the microdilution trays, the trays are incubated at 35° C. for 16-20 hours and then read. […] The amount of growth in the wells containing the test compound is compared with the amount of growth in the growth-control wells (no test compound) used in each tray. As set forth in Table 1, compounds of the present invention were tested against a variety of Gram positive and Gram negative pathogenic bacteria resulting in a range of activities depending on the organism tested.

S. pneumoniae ATCC49619 = conditions: D: S. pneumoniae ATCC49619, 35° C., 16-20 hours
Method: as §1, §2, §3

E. coli OC2605 = conditions: A: E. coli OC2605, 35° C., 16-20 hours
Method: as §1, §2, §3

E. faecalis ATCC29212 = conditions: C: E. faecalis ATCC29212, 35° C., 16-20 hours
Method: as §1, §2, §3

H. influenzae ATCC49247 = conditions: E: H. influenzae ATCC49247, 35° C., 16-20 hours
Method: as §1, §2, §3

Structure (SMILES)	MIC (S. aureus ATCC29213) [µg/mL]	MIC (S. pneumoniae ATCC49619) [µg/mL]	MIC (E. coli OC2605) [µg/mL]	MIC (E. faecalis ATCC29212) [µg/mL]	MIC (H. influenzae ATCC49247) [µg/mL]
CC[C@H]1OC(=O)[C@H](C)C(=O)[C@H](C)[C@@H](O[C@@H]2O[C@H](C)C[C@H](N(C)C)[C@H]2O)[C@](C)(OC(=O)NC/C=C/c2ccc(-c3nccc(OC)n3)cc2)C[C@@H](C)C(=O)[C@H](C)[C@H]2NC(=O)O[C@@]21C [Compound 71]	0.25 (≈ 0.289 µM)	0.06 (≈ 0.0693 µM)	>16	0.12 (≈ 0.139 µM)	4 (≈ 4.62 µM)
CC[C@H]1OC(=O)[C@H](C)C(=O)[C@H](C)[C@@H](O[C@@H]2O[C@H](C)C[C@H](N(C)C)[C@H]2O)[C@](C)(OC(=O)NC/C=C/c2ccc(-n3cncn3)cc2)C[C@@H](C)C(=O)[C@H](C)[C@H]2NC(=O)O[C@@]21C [Compound 20]	0.12 (≈ 0.145 µM)	0.03 (≈ 0.0364 µM)	16 (≈ 19.4 µM)	0.06 (≈ 0.0727 µM)	4 (≈ 4.85 µM)
CC[C@H]1OC(=O)[C@H](C)C(=O)[C@H](C)[C@@H](O[C@@H]2O[C@H](C)C[C@H](N(C)C)[C@H]2O)[C@](C)(OC(=O)NC/C=C/c2ccc([N+](=O)[O-])cc2)C[C@@H](C)C(=O)[C@H](C)[C@H]2NC(=O)O[C@@]21C [Compound 15]	0.12 (≈ 0.149 µM)	0.03 (≈ 0.0374 µM)	4 (≈ 4.98 µM)	0.06 (≈ 0.0747 µM)	2 (≈ 2.49 µM)
CC[C@H]1OC(=O)[C@H](C)C(=O)[C@H](C)[C@@H](O[C@@H]2O[C@H](C)C[C@H](N(C)C)[C@H]2O)[C@](C)(OC(=O)NC/C=C/c2ccc(-n3ccnc3)cc2)C[C@@H](C)C(=O)[C@H](C)[C@H]2NC(=O)O[C@@]21C [Compound 22]	0.25 (≈ 0.303 µM)	0.03 (≈ 0.0364 µM)	8 (≈ 9.71 µM)	0.06 (≈ 0.0728 µM)	2 (≈ 2.43 µM)
CC[C@H]1OC(=O)[C@H](C)C(=O)[C@H](C)[C@@H](O[C@@H]2O[C@H](C)C[C@H](N(C)C)[C@H]2O)[C@](C)(OC(=O)NCC=C(c2ccccc2)c2ccccc2)C[C@@H](C)C(=O)[C@H](C)[C@H]2NC(=O)O[C@@]21C [Compound 54]	1 (≈ 1.2 µM)	0.12 (≈ 0.144 µM)	>16	0.5 (≈ 0.6 µM)	2 (≈ 2.4 µM)
CC[C@H]1OC(=O)[C@H](C)C(=O)[C@H](C)[C@@H](O[C@@H]2O[C@H](C)C[C@H](N(C)C)[C@H]2O)[C@](C)(OC(=O)NC/C=C/c2ccc(-n3cccn3)nc2)C[C@@H](C)C(=O)[C@H](C)[C@H]2NC(=O)O[C@@]21C [Compound 49]	0.25 (≈ 0.303 µM)	0.06 (≈ 0.0727 µM)	16 (≈ 19.4 µM)	0.06 (≈ 0.0727 µM)	2 (≈ 2.42 µM)
CC[C@H]1OC(=O)[C@H](C)C(=O)[C@H](C)[C@@H](O[C@@H]2O[C@H](C)C[C@H](N(C)C)[C@H]2O)[C@](C)(OC(=O)NCCCc2ccc(-c3ncccn3)cc2)C[C@@H](C)C(=O)[C@H](C)[C@H]2NC(=O)O[C@@]21C [Compound 80, Carbamic acid, [3-[4-(2-2pyrimidinyl)phenyl]propyl]-, (3aS,4R,7R,9R,10R,11R,13R,15R,15aR)-4-ethyltetradecahydro-3a,7,9,11,13,15-hexamethyl-2,6,8,14-tetraoxo-10-[[3,4,6-trideoxy-3-(dimethylamino)-b-β-xylo-hexopyranosyl]oxy]-2H-oxacyclotetradecino[4,3-d]oxazol-11-yl ester]	0.12 (≈ 0.143 µM)	0.03 (≈ 0.0358 µM)	>16	0.06 (≈ 0.0716 µM)	4 (≈ 4.77 µM)
CCC1OC(=O)C(C)(F)C(=O)C(C)C(OC2OC(C)CC(N(C)C)C2O)C(C)(OC(=O)NCC=Cc2ccc3ncccc3c2)CC(C)C(=O)C(C)C2NC(=O)OC12C (centres unmarked) [Compound 90]	0.25 (≈ 0.302 µM)	0.03 (≈ 0.0363 µM)	8 (≈ 9.67 µM)	0.06 (≈ 0.0726 µM)	4 (≈ 4.84 µM)
CC[C@H]1OC(=O)[C@H](C)C(=O)[C@H](C)[C@@H](O[C@@H]2O[C@H](C)C[C@H](N(C)C)[C@H]2O)[C@](C)(OC(=O)NC/C=C/c2ccc(-c3ccc([N+](=O)[O-])cn3)cc2)C[C@@H](C)C(=O)[C@H](C)[C@H]2NC(=O)O[C@@]21C [Compound 45]	1 (≈ 1.14 µM)	0.25 (≈ 0.284 µM)	>16	0.5 (≈ 0.568 µM)	4 (≈ 4.55 µM)
CC[C@H]1OC(=O)[C@H](C)C(=O)[C@H](C)[C@@H](O[C@@H]2O[C@H](C)C[C@H](N(C)C)[C@H]2O)[C@](C)(OC(=O)NC/C=C/c2ccc(Br)cc2)C[C@@H](C)C(=O)[C@H](C)[C@H]2NC(=O)O[C@@]21C [Compound 16]	0.5 (≈ 0.598 µM)	0.03 (≈ 0.0359 µM)	8 (≈ 9.56 µM)	0.12 (≈ 0.143 µM)	4 (≈ 4.78 µM)
